Experimental data from patent publication US20020028849A1, “Use of retinol in assisted-reproduction protocols” (priority 2000, published 2002).

Legend:
[1] = tested on: superovulated ewes (embryos recovered at the morula stage); experiment: Experiment 1: retinoid treatment of superovulated ewes, in vitro development of recovered morula-stage embryos; assay type: in vivo, sheep; conditions: for embryo quality score (grade 1=excellent to 4=degenerate) immediately after collection / in vitro blastocyst formation / embryonic hatching rate in vitro: ROH 500,000 IU, RA 15 mg; for embryo quality score (grade 1=excellent to 4=degenerate) immediately after collection / in vitro blastocyst formation: CIS 15 mg on first and last day of FSH; for embryo quality score (grade 1=excellent to 4=degenerate) immediately after collection: morula stage; for in vitro blastocyst formation: morulae cultured 72 h in TCM 199; for embryonic hatching rate in vitro: CIS 15 mg, morulae cultured 72 h
Protocol: (§1) Referring now to FIGS. 1 and 2, a series of experiments were carried out to examine the effect of retinoid administration on superovulated sheep. In these experiments, the estrous cycles of sexually mature crossbred ewes were synchronized using progestin implants (Synchromate B) combined with prostaglandin F2-alpha (Lutalyse) injections, and superovulation was induced by multiple FSH injections. Briefly, animals were administered one progestin implant and 6 days later received two Lutalyse injections (15 mg i.m.) 12 hours apart. Superovulation was induced using a total of 24 units of FSH administered twice daily in decreasing doses over 3 days (5.5, 4.4, 3.3 units per injection, respectively) beginning 9-11 days after implant administration. Retinoid treatments were administered on the first and last day of FSH injections. Implants were removed at the time of the fifth FSH injection, and animals were checked for estrus 24 hours later. […] All animals were maintained on high-quality hay and fed ad libitum, with free-choice access to a sheep and goat mineral premix that contained 1 million IU vitamin A per pound.
In the first experiment, performed under decreasing day length (fall), 25 ewes were randomly assigned to one of the following treatments: (1) all-trans retinol (ROH; 500,000 IU, n=6); (2) all-trans retinoic acid (RA; 15 mg, n=6); (3) 9-cis retinoic acid (CIS; 15 mg, n=7); or (4) vehicle (Control; n=6), which was corn oil. Animals were surgically ovohysterectomized at 144 hours post-implant removal, and uteri were gently flushed twice with culture medium (tissue culture medium 199 [TCM 199]) to collect morula stage embryos. Two ewes from the RA group wer dropped from the study: one because of a total lack of response to the FSH treatment, the other because of overstimulation resulting in more than 50 ovulations with none of the ova fertilizing. This left 4 animals in the RA group, 5 in each of the ROH and Control groups, and 7 in the CIS group.
Embryos (morulae) collected in experiments 1 and 2 were categorized according to morphology, developmental stage, and quality based on a procedure developed for bovine embryos. See, Lindner and Wright, Theriogenology 1983; 20:407-416. Quality grades ranged from 1 to 4, with 1=excellent, 2=good, 3=poor, and 4=degenerate. One individual, who was unaware of treatments at the time, performed all of the grading.
In the first two experiments, morula-stage embryos were cultured in TCM 199 with Earle's salt supplemented with 10% FBS and 1 mM glutamine. See, Bavister BD. Studies on the developmental blocks in cultured hamster embryos. In: Bavister BD (ed.), The Mammalian Preimplantation Embryo: Regulation of Growth and Differentiation in vitro. New York:Plenum Press; 1987:219-249. The FBS had been twice stripped of low molecular weight molecules with charcoal, and retinol concentrations were below detection levels as determined by fluorescent analysis. See, Selvaraj and Susheela, Clin Chim Acta 1970; 27:165-170. In the third experiment, 1- to 4-cell embryos were cultured in SOF supplemented with 3 mg/ml BSA and essential and nonessential amino acids. See, Carolan et al., Theriogenology 1995; 43:1115-1128. Both media were prepared weekly, filtered through a 0.2 um filter, and allowed to equilibrate for 2 hours in a humidified atmosphere at 38.5° C. containing 5% CO2 in air.
Morula-stage embryos (experiments 1 and 2) were washed a minimum of three times in the outer well of organ culture dishes and then transferred with a minimum amount of medium into the inner well, which contained 3 ml of TCM 199. Embryos from each ewe were cultured in one dish, and there were no significant differences in the average number of embryos per dish between treatments. Embryos were cultured for 96 hours and observed daily for blastocyst formation and complete hatching from the zona pellucida. No further development was observed after 72 hours in culture, and all data presented reflect that time period. […]

[2] = tested on: superovulated ewes (embryos recovered at the morula stage); experiment: Experiment 2: ROH treatment of superovulated ewes (winter), in vitro development of morula-stage embryos; assay type: in vivo, sheep
Protocol: as §1
The second experiment was a repetition of the first, with the exceptions that it was performed under increasing day length (winter) and only the ROH and Control treatments were administered (in combination with FSH) to 24 ewes (12 per treatment) not used in the previous experiment. One ewe from the Control group was dropped from the study for failure to respond to FSH treatment. […]
In the first two experiments, morula-stage embryos were cultured in TCM 199 with Earle's salt supplemented with 10% FBS and 1 mM glutamine. […] The FBS had been twice stripped of low molecular weight molecules with charcoal, and retinol concentrations were below detection levels as determined by fluorescent analysis. […]
(§2) Data were checked for normality and analyzed using the Statistical Analysis System (SAS Institute Inc., Cary, N.C.). […]

[3] = tested on: superovulated ewes (1- to 4-cell embryos); experiment: Experiment 3: ROH treatment of superovulated ewes, in vitro development of 1- to 4-cell embryos; assay type: in vivo, sheep; conditions: 1- to 4-cell embryos cultured in SOF
Protocol: as §1
The third study involved two identical experiments performed sequentially in the fall and winter. Results were not different between seasons, and the data were combined. A total of 24 ewes, not used in the previous experiments, received either ROH (n=12) or Control (n=12) treatment in combination with FSH, followed by natural mating at estrus, as in experiment 2. At 84 hours post-implant removal, ewes were salphincectomized and oviducts gently flushed with culture medium in order to recover 1- to 4-cell embryos.
In the first two experiments, morula-stage embryos were cultured in TCM 199 with Earle's salt supplemented with 10% FBS and 1 mM glutamine. See, Bavister BD. […] The FBS had been twice stripped of low molecular weight molecules with charcoal, and retinol concentrations were below detection levels as determined by fluorescent analysis. […]
as §2

[4] = tested on: in vitro produced bovine embryos (presumptive zygotes); experiment: In vitro retinol treatment of presumptive zygotes, blastocyst formation; assay type: cell-based; conditions: 7-8 days culture
Protocol: The effects of retinol and retinoic acid on early embryonic development of in vitro produced bovine embryos were investigated. Oocytes and their surrounding cumulus cells were collected from bovine ovaries, matured in vitro for 24 h and fertilized by standard procedures for 8-10 h. Presumptive zygotes were denuded of cumulus cells, washed and cultured in modified synthetic oviduct fluid (a standard culture medium) in the presence or absence of retinol ([…]) at 38.5° C. in a humidified atmosphere of 5% CO2 in air. Embryos were cultured for 7-8 days.
Blastocyst (a fluid filled ball of approximately 100 cells, containing a inner cell mass which gives rise to the fetus and a trophoblast which gives rise to the placenta) formation was used as an end point for in vitro development. The above experiment was performed three times using 210 embryos in each treatment group with 70 embryos/group (630 total, 210/treatment). Embryonic development to the blastocyst stage, expressed as % blastocyst/cleaved embryos, was control (no retinol)=28.33%, 1 uM Retinol=48.66%, 10 uM Retinol=57.33%.

[5] = tested on: recipient ewes receiving embryos from treated donor ewes; experiment: Pregnancy rates after transfer of frozen embryos from retinol-treated superovulated ewes; assay type: in vivo, sheep
From the text: Twenty-four ewes were synchronized, superovulated and administered treatments, as described previously (Eberhardt, Will and Godkin. Biol Reprod 60, 1483-1487, 1999). Briefly, animals received a progestagen implant and six days later received two injections of prostaglandin F2-alpha (Lutalyse, Upjohn Co. Kalamazoo, Mich.) twelve hours apart. Superovulation was induced with 24 units of porcine follicle stimulating hormone (FSH, Sioux Biochemical, Sioux City, Iowa) in decreasing doses over 3 days beginning 9-11 days after implant administration. All-trans retinol was administered to twelve ewes in corn oil at 500,000 IU per injection on the first and last day of FSH injections. Control ewes (12) received corn oil without retinol.
Embryos at the morula stage of development (168 h post implant removal) were collected by gently flushing the uterus with phosphaste-buffered saline+2% bovine serum albumin (BSA) following surgical hysterectomy. Embryos were frozen by conventional methods (Leibo. Theriogenology 21: 767. 1984) using ethylene glycol as the cryoprotectant in a programmable freezer and stored in liquid N2. After three months, embryos were thawed briefly (30 seconds) at 37° C. and two embryos were transferred directly into the uterine horn of synchronized recipient ewes. Seven recipient ewes received embryos from retinol-treated ewes and 11 recipient ewes received embryos from control ewes. Pregnancy rates were determined by ultrasonography 30-40 days after transfer.

[6] = cited from earlier work

In the case of `CC1=C(/C=C/C(C)=C\C=C\C(C)=C\C(=O)O)C(C)(C)CCC1` [CIS, 9-cis retinoic acid], the “embryo quality score (grade 1=excellent to 4=degenerate) immediately after collection” value [1] is reported as 2.4±0.2, the “in vitro blastocyst formation” value [1] is reported as 33% and the “embryonic hatching rate in vitro” value [1] is reported as 38%.
In the case of `CC1=C(/C=C/C(C)=C/C=C/C(C)=C/CO)C(C)(C)CCC1` [ROH, all-trans retinol], the “embryo quality score (grade 1=excellent to 4=degenerate) immediately after collection” value [1] is reported as 1.9±0.1, the “in vitro blastocyst formation” value [1] is reported as 72% and the “embryonic hatching rate in vitro” value [1] is reported as 73%. The “fold increase in in vitro blastocyst formation compared to RA, CIS or Control animals” value ([1]; p<0.05) was “greater than 2 fold”, the “fold increase in hatching rate in comparison with vehicle treatment” value [2] was ~3 fold and the hatching rate ([2]; ROH treatment of donor ewes, p<0.05) was 70%. The “percentage of embryos that formed blastocysts” value ([2]; ROH treatment of donor ewes, winter, n=243 embryos) was 70%, the blastocyst hatching [3] was 71% and the blastocyst formation ([3]; n=230 embryos, p<0.05) was 79%. The “embryos that progressed through the 8-cell in vitro block” value ([3]; p<0.05) was 94%, the “embryonic development to the blastocyst stage, % blastocyst/cleaved embryos” value ([4]; 1 uM Retinol in modified synthetic oviduct fluid) was 48.66% and the “embryonic development to the blastocyst stage, % blastocyst/cleaved embryos” value ([4]; 10 uM Retinol in modified synthetic oviduct fluid) was 57.33%. For the same molecule, the “pregnancy rate of recipient ewes” value ([5]; donors given 500,000 IU per injection on first and last day of FSH, two frozen-thawed embryos transferred, ultrasonography 30-40 days after transfer) was 86%, the “number of the six pregnant recipient ewes carrying twins” value ([5]; embryos from retinol-treated donor ewes) was “five” and the “survival of all transferred embryos” value ([5]; embryos from retinol-treated donor ewes, 30-40 days after transfer) was 78.6%. For the same molecule, the “solubility in ethanol, methanol, ether, fats, and oil” value ([6]; ethanol, methanol, ether, fats, oil) was “soluble” and the “solubility in water or aqueous salt solutions” value ([6]; water or aqueous salt solutions) was “practically insoluble”.
With `CC1=C(/C=C/C(C)=C/C=C/C(C)=C/C(=O)O)C(C)(C)CCC1` [RA, all-trans retinoic acid] the “in vitro blastocyst formation” value [1] was 27% and the “embryonic hatching rate in vitro” value [1] was 55%.
